In patent publication US20260151370A1, “Nutritional composition for neurodegeneration and neurotrauma” (N.V. Nutricia, priority 2023, published 2026):

Tested on: PC12 neuronal cells
Assay: Neurite outgrowth in NGF-differentiated PC12 neuronal cell cultures (Calcein-AM/Hoechst imaging)
Type: cell-based
Procedure: In order to assess the effects of nutritional components on axonal outgrowth and dendritic arborization underlying functional brain connectivity, the effects of nutrient supplementation on neurite outgrowth parameters in PC12 pheochromocytoma cells was investigated. PC12 neuronal cell model is one of the most widely used cell models for the study of neuronal differentiation. PC12 pheochromocytoma cells were grown in DMEM (Gibco), supplemented with 10% fetal bovine serum (FBS), penicillin (100 units/ml), and streptomycin (100 μg/ml) (Gibco), under a humidified atmosphere with 95% air and 5% CO2 at 37° C. Cells were seeded onto a collagen (0.01 mg/ml) coated 96-well plates at a density of 5000 cells/well and after 24 hours supplemented with medium containing 20 ng/ml nerve growth factor (NGF) with or without the components as defined in the present and in the following examples. Cell cultures were incubated at 37° C. in 5% CO2 and medium was replaced every 2-3 days. DHA and EPA were resuspended in absolute ethanol and diluted 5 times in fetal bovine serum. Other compounds were dissolved in DMEM. All compounds were purchased from Sigma (Zwijndrecht, The Netherlands). Supplementation of cells was performed in 6-fold in 96 wells plates. Neurite outgrowth of these conditions was compared to non-supplemented cells. After 48 hours of nutrient supplementation, cell bodies and neurites were stained using Calcein-AM stain (0.2 μg/ml) (Invitrogen, batch #C3100MP) and the nuclei were counterstained using Hoechst stain (1.2 μg/ml) (Thermo Scientific, batch #62249) in 100 μl culture medium per well and incubated for 20 min at 37° C. Subsequently, FITC and DAPI images (9 images per well, 6 wells per condition) were taken using an ImageXpress Micro Confocal high content imaging system (Molecular Devices). Neurite length was quantified using the neurite outgrowth module in MetaXpress. Image analysis was carried out using the neurite outgrowth analysis module in MetaXpress (Molecular Devices). The measurements taken from each well included the number of nuclei and the mean neurite outgrowth (μm) per cell. The data was normalized to and expressed as a relative percentage of the plate-averaged value of the vehicle-treated control wells.

[1] = FIG. 4 plate: total 20 μM choline from chol-Cl, PC or both
[2] = FIG. 8 plate: BA 200 μM, B2 0.25 μM, DHA 2.5 μM, D3 0.25 μM, PC 20 μM, alone or combined
[3] = FIG. 9 first plate: B2 0.25 μM, D3 0.75 μM, PC 15 μM, BA 40 μM, alone or together with reference diet
[4] = FIG. 1 plate: DHA 6.7 μM, EPA 10 μM, vitamin B2 1.25 μM, vitamin D3 0.25 μM, alone or combined, 48 hours, 20 ng/ml NGF

Row | Molecule | neurite outgrowth compared to control [1] | observed mean neurite outgrowth, percentage relative to control (100%) (FIG. 5 plate: choline 20 μM (chol-Cl and/or PC), DHA 3.3 μM, B2 0.5 μM, D3 0.25 μM) | observed mean neurite outgrowth, percentage relative to control (100%) [2] | observed mean neurite outgrowth, percentage relative to control (100%) [3] | observed mean neurite outgrowth, percentage relative to control (100%) [4] | neurite outgrowth compared to control (FIG. 7 plate: BA 200 μM) | neurite outgrowth compared to control (FIG. 7 plate: BA 12.5, 25, 50, 100 and 200 μM)
1 | phosphatidylcholine [PC] | increases neurite outgrowth more than supplementation with 100 mole % chol-Cl | increased neurite outgrowth more than supplementation with 100 mole % chol-Cl | increased neurite outgrowth more than supplementation of vitamin B2 and D3 alone | increased neurite outgrowth |  |  | 
2 | C=C1CC[C@H](O)C/C1=C/C=C1\CCC[C@]2(C)[C@@H]([C@H](C)CCCC(C)C)CC[C@@H]12 [vitamin D3, cholecalciferol] |  |  |  | increased neurite outgrowth | increased neurite outgrowth |  | 
3 | CCCC(=O)O [BA, butyric acid] |  |  | increased neurite outgrowth more than supplementation of vitamin B2 and D3 alone | increased neurite outgrowth |  | strongest effect on neurite outgrowth | increased neurite outgrowth in a dose-dependent manner
4 | C[N+](C)(C)CCO.[Cl-] [chol-Cl, choline-chloride] | enhance neurite outgrowth |  |  |  |  |  | 
5 | Cc1cc2nc3c(=O)[nH]c(=O)nc-3n(C[C@H](O)[C@H](O)[C@H](O)CO)c2cc1C [vitamin B2, riboflavin] |  |  |  | increased neurite outgrowth | increased neurite outgrowth |  | 
